Our source for the EC50 and IC50 values is patent US11066414B2, “Cot modulators and methods of use thereof” (Gilead Sciences, Inc., priority 2015, dated 2021).

One assay concerns TNFα. The assay can be described thus: Cot Monocyte TNFα Cell Based Assay.
For the next assay, the target named is Human Cot (Homo sapiens (Human), UniProt P41279). The assay can be described thus: High Throughput Cot Biochemical Assay.
Where [1] appears, read: Homo sapiens, Monocyte, read-out: EC50 TNF, LPS-stimulated human monocytes, TNFα.
The mark [2] stands for this setting: IC50 HTRF, Cot HTRF (TR-FRET) biochemical assay.
Setting [3] is: Homo sapiens, Monocyte, read-out: EC50 TNF, LPS-stimulated human monocytes, TNFα TR-FRET.
[4] abbreviates: IC50 HTRF, Cot HTRF (TR-FRET KinEASE) biochemical assay, 400 μM ATP.
The mark [5] stands for this setting: read-out: EC50 TNF, LPS-stimulated human monocytes, TNFα.
Where [6] appears, read: read-out: IC50 HTRF, Cot HTRF (TR-FRET) biochemical assay.

SMILES strings stand for the structures. Where two headings read alike, the source gives them in different places. A value given as a limit tells only on which side of the number the result lay.

Sequence of Human Cot (P41279 30-397): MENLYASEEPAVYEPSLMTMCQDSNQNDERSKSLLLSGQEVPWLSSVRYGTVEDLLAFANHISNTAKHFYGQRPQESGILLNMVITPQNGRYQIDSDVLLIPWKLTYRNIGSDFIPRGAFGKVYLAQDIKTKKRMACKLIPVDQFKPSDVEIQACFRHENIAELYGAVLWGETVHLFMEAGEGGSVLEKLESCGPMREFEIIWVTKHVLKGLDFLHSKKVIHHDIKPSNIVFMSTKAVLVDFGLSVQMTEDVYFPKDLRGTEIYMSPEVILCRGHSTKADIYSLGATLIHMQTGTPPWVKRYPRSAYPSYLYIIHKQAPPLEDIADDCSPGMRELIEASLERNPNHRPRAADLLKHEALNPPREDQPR

For the compound `CC(C)(C)CNc1c(C#N)cnc2c(Cl)cc(N[C@H](c3cn(C4CC4)nn3)c3cccc4ncccc34)cc12` [Example 437, (S)-8-chloro-6-(((1-cyclopropyl-1H-1,2,3-triazol-4-yl)(quinolin-5-yl)methyl)amino)-4-(neopentylamino)quinoline-3-carbonitrile], the EC50 – broadly, the concentration at which the effect is half-maximal – with TNFα (setting [1]) worked out at 82 nM. The IC50 (usually the point on the concentration scale where inhibition reaches its midpoint) on Human Cot (setting [2]) is 2 nM.
`CC(C)(C)CNc1c(C#N)cnc2c(Cl)cc(N[C@H](c3cn(C4(C(F)F)CC4)nn3)c3ccc(F)c4cnccc34)cc12` [Example 652, (S)-8-chloro-6-(((1-(1-(difluoromethyl)cyclopropyl)-1H-1,2,3-triazol-4-yl)(8-fluoroisoquinolin-5-yl)methyl)amino)-4-(neopentylamino)quinoline-3-carbonitrile]: the EC50 with TNFα (setting [1]) was 40 nM. Further, the IC50 at Human Cot (setting [2]) turned out to be 4 nM.
Turning to `C[C@@H](CF)n1cc([C@@H](Nc2cc(C#N)c3ncc(C#N)c(NCC(C)(C)C)c3c2)c2cccc3c(=O)n(C)ccc23)nn1` [Example 877, 6-(((S)-(1-((S)-1-fluoropropan-2-yl)-1H-1,2,3-triazol-4-yl)(2-methyl-1-oxo-1,2-dihydroisoquinolin-5-yl)methyl)amino)-4-(neopentylamino)quinoline-3,8-dicarbonitrile], in the assay on TNFα (setting [3]), the EC50 was determined as 34 nM. The same compound showed an IC50 against Human Cot (setting [4]) of 2 nM.
With `Cn1cnc2cccc([C@H](Nc3cc(C#N)c4ncc(C#N)c(NCC(C)(C)C)c4c3)c3cn(C4(C(F)(F)F)CC4)nn3)c21` [Example 484, (S)-6-(((1-methyl-1H-benzo[d]imidazol-7-yl)(1-(1-(trifluoromethyl)cyclopropyl)-1H-1,2,3-triazol-4-yl)methyl)amino)-4-(neopentylamino)quinoline-3,8-dicarbonitrile], the EC50 in the assay with TNFα (setting [1]) came out at 73 nM. On Human Cot (setting [2]), half-maximal inhibition (IC50) was put at 3 nM.
In the case of `C[C@@H](CF)n1cc([C@@H](Nc2cc(Cl)c3ncc(C#N)c(NCC(C)(C)C(F)(F)F)c3c2)c2cccc3c(=O)n(C)ccc23)nn1` [Example 784, 8-chloro-6-(((S)-(1-((S)-1-fluoropropan-2-yl)-1H-1,2,3-triazol-4-yl)(2-methyl-1-oxo-1,2-dihydroiso-quinolin-5-yl)methyl)amino)-4-((3,3,3-trifluoro-2,2-dimethylpropyl)amino)quinoline-3-carbonitrile], the EC50 in the assay on TNFα (setting [5]) was determined as 51 nM. The IC50 at Human Cot (setting [6]) worked out at 3 nM.
Consider `CC(C)(C)N1CCC(n2cc([C@@H](Nc3cc(Cl)c4ncc(C#N)c(Nc5cccc(Cl)c5F)c4c3)c3cccnc3)nn2)CC1` [Example 286], for which the EC50 in the assay on TNFα (setting [5]) came out at 121 nM. The IC50 at Human Cot (setting [6]) amounted to 4 nM.
Consider `Cc1nc(C#N)ccc1[C@H](Nc1cc(C#N)c2ncc(C#N)c(NCC(C)(C)C)c2c1)c1cn(C2(C(F)(F)F)CC2)nn1` [Example 830, (S)-6-(((6-cyano-2-methylpyridin-3-yl)(1-(1-(trifluoromethyl)cyclopropyl)-1H-1,2,3-triazol-4-yl)methyl)amino)-4-(neopentylamino)quinoline-3,8-dicarbonitrile], for which, in the assay on TNFα (setting [3]), the EC50 stood at 384 nM. The compound further returned an IC50 on Human Cot (setting [4]) of 16 nM.
Regarding `CCN1CCC(n2cc([C@@H](Nc3cc(Cl)c4ncc(C#N)c(Nc5ccc(F)c(Cl)c5)c4c3)c3cscc3Cl)nn2)CC1` [Example 371, (S)-8-chloro-4-((3-chloro-4-fluorophenyl)amino)-6-(((4-chlorothiophen-3-yl)(1-(1-ethylpiperidin-4-yl)-1H-1,2,3-triazol-4-yl)methyl)-amino)quinoline-3-carbonitrile], the EC50 in the assay with TNFα (setting [1]) was determined as 173 nM. In addition, the IC50 on Human Cot (setting [2]) amounted to 2 nM.
On the same counts, the results for `Cc1ncsc1[C@H](Nc1cc(Cl)c2ncc(C#N)c(Nc3cccc(Cl)c3F)c2c1)c1cn(C(C)C)nn1` [Example 252, (R)-8-chloro-4-((3-chloro-2-fluorophenyl)amino)-6-(((1-isopropyl-1H-1,2,3-triazol-4-yl)(4-methylthiazol-5-yl)methyl)-amino)quinoline-3-carbonitrile] are 119 nM and 6 nM.
Consider `CCc1ncccc1[C@H](Nc1cc(C#N)c2ncc(C#N)c(NCC(C)(C)C)c2c1)c1cn(C2(C(F)F)CC2)nn1` [Example 606, (S)-6-(((1-{1-(difluoromethyl)-cyclopropyl)-1H-1,2,3-triazol-4-yl)(2-ethylpyridin-3-yl)methyl)amino)-4-(neopentylamino)quinoline-3,8-dicarbonitrile], for which the EC50 in the assay on TNFα (setting [1]) came out at 27 nM. The compound further registered an IC50 against Human Cot (setting [2]) of 2 nM.
With `Cn1nccc1[C@H](Nc1cc(Cl)c2ncc(C#N)c(Nc3cnc(F)c(F)c3)c2c1)c1c[nH]nn1` [Example 165, (S)-8-chloro-4-((5,6-difluoropyridin-3-yl)amino)-6-(((1-methyl-1H-pyrazol-5-yl)(1H-1,2,3-triazol-4-yl)methyl)amino)quinoline-3-carbonitrile], the EC50 with TNFα (setting [1]) amounted to 2370 nM. This compound also yielded an IC50 against Human Cot (setting [2]) of 9 nM.
On the same counts, the results for `Cc1nc(F)ccc1[C@H](Nc1cc(C#N)c2ncc(C#N)c(NCC(C)(C)C)c2c1)c1cn(C(C)(C)CF)nn1` [Example 625, (S)-6-(((1-{1-fluoro-2-methylpropan-2-yl)-1H-1,2,3-triazol-4-yl)(6-fluoro-2-methylpyridin-3-yl)methyl)amino)-4-(neopentylamino)quinoline-3,8-dicarbonitrile] are 26 nM and 2 nM.
On the same counts, the results for `CCCN1CCC(n2cc([C@@H](Nc3cc(Cl)c4ncc(C#N)c(Nc5ccc(F)c(Cl)c5)c4c3)c3cncs3)nn2)CC1` [Example 373, (R)-8-chloro-4-((3-chloro-4-fluorophenyl)amino)-6-(((1-(1-propylpiperidin-4-yl)-1H-1,2,3-triazol-4-yl)(thiazol-5-yl)methyl)amino)-quinoline-3-carbonitrile] are 81 nM and 3 nM.
For `Cn1ccc2c([C@H](Nc3cc(Cl)c4ncc(C#N)c(NCC(C)(C)C)c4c3)c3cn(C45CC(C4)C5)nn3)cccc21` [Example 735, (S)-6-(((1-(bicyclo[1.1.1]pentan-1-yl)-1H-1,2,3-triazol-4-yl)(1-methyl-1H-indol-4-yl)methyl)amino)-8-chloro-4-(neopentylamino)quinoline-3-carbonitrile], the EC50 in the assay on TNFα (setting [1]) amounted to 478 nM. In addition, the IC50 against Human Cot (setting [2]) worked out at 47 nM.
On the same counts, the results for `Cc1ncccc1[C@H](Nc1cc(Cl)c2ncc(C#N)c(Nc3ccc(Cl)c(Cl)c3F)c2c1)c1cn(C2CCN(C(C)(C)C)CC2)nn1` [Example 233, (S)-6-(((1-(1-(tert-butyl)piperidin-4-yl)-1H-1,2,3-triazol-4-yl)(2-methylpyridin-3-yl)methyl)amino)-8-chloro-4-((3,4-dichloro-2-fluorophenyl)amino)quinoline-3-carbonitrile] are 114 nM and 8 nM.
Turning to `CC[C@@H](Nc1c(C#N)cnc2c(Cl)cc(N[C@@H](c3cccnc3)c3cn([C@H]4[C@@H]5CNC[C@@H]54)nn3)cc12)c1ccccc1` [Example 180, 6-(((S)-(1-((• R,5S,6s)-3-azabicyclo[3.1 0]hexan-6-yl)-1H-1,2,3-triazol-4-yl)(pyridin-3-yl)methyl)amino)-8-chloro-4-(((R)-1-phenylpropyl)amino)-quinoline-3-carbonitrile], the EC50 with TNFα (setting [5]) is 104 nM. In addition, the IC50 on Human Cot (setting [6]) turned out to be 1 nM.
`Cc1ccc2c([C@H](Nc3cc(C#N)c4ncc(C#N)c(NCC(C)(C)C)c4c3)c3cn(C45CC(C4)C5)nn3)cccc2n1` [Example 900, (S)-6-(((1-(bicyclo[1.1.1]pentan-1-yl)-1H-1,2,3-triazol-4-yl)(2-methylquinolin-5-yl)methyl)amino)-4-(neopentylamino)quinoline-3,8-dicarbonitrile]: the EC50 in the assay on TNFα (setting [3]) was found to be 30 nM. Also, on Human Cot (setting [4]), it took 3 nM to reach half-maximal inhibition (IC50).
In the case of `CC(C)(C)N1CCC(n2cc([C@@H](Nc3cc(Cl)c4ncc(C#N)c(Nc5cccc(Cl)c5F)c4c3)c3csc4c3CCN(C3COC3)C4)nn2)CC1` [Example 241, (S)-6-(((1-(1-(tert-butyl)piperidin-4-yl)-1H-1,2,3-triazol-4-yl)(6-(oxetan-3-yl)-4,5,6,7-tetrahydrothieno[2,3-c]pyridin-3-yl)methyl)amino)-8-chloro-4-((3-chloro-2-fluorophenyl)amino)-quinoline-3-carbonitrile], in the assay with TNFα (setting [1]), the EC50 came out at 32 nM. Besides, the IC50 on Human Cot (setting [2]) came out at 2 nM.
On the same counts, the results for `[2H]C(Nc1cc(Cl)c2ncc(C#N)c(N[C@@H](CCC#N)c3ccccc3)c2c1)(c1ccc(F)nc1)c1cn(C2CC2)nn1` (stereo partly drawn) [Example 88, 8-chloro-4-(((S)-3-cyano-1-phenylpropyl)amino)-6-(((1-cyclopropyl-1H-1,2,3-triazol-4-yl)(6-fluoropyridin-3-yl)methyl-d)amino)quinoline-3-carbonitrile] are over 1000 nM and 1160 nM.
As for `Cn1ccc2c([C@H](Nc3cc(C#N)c4ncc(C#N)c(NCC(C)(C)C)c4c3)c3cn(C4(C(F)(F)F)CC4)nn3)cccc2c1=O` [Example 631, (S)-6-(((2-methyl-1-oxo-1,2-dihydroisoquinolin-5-yl)(1-(1-(trifluoromethyl)-cyclopropyl)-1H-1,2,3-triazol-4-yl)methyl)amino)-4-(neopentylamino)quinoline-3,8-dicarbonitrile], the EC50 in the assay with TNFα (setting [1]) turned out to be 32 nM. In addition, half-maximal inhibition at Human Cot (setting [2]) (IC50) required 2 nM.
On the same counts, the results for `Cc1nc(F)ccc1[C@H](Nc1cc(C#N)c2ncc(C#N)c(NCC(C)(C)C)c2c1)c1cn(C(C)(C)C(F)F)nn1` [Example 590, (S)-6-(((1-(1,1-difluoro-2-methylpropan-2-yl)-1H-1,2,3-triazol-4-yl)(6-fluoro-2-methylpyridin-3-yl)methyl)amino)-4-(neopentylamino)-quinoline-3,8-dicarbonitrile] are 57 nM and 3 nM.
